Here are results for 10 molecules from PubChem BioAssay AID248 (DTP/NCI, 2004).

Where “and” joins values, the source holds several entries; their conditions need not be identical. Equal values may be shown once. Inconclusive results and toxic doses are left out.

The assay deals with L1210 leukemia ip in BDF1 mice, survival T/C. Put plainly: NCI In Vivo Anticancer Drug Screen. Data for tumor model L1210 Leukemia (intraperitoneal) in B6D2F1 (BDF1) mice. To be noted: endpoint: mean survival time, higher = longer survival. The essentials:
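Value reflects the ratio of survival in compound-treated mice to survival in vehicle-treated controls, with both groups carrying the same transplanted tumor.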

Where [1] appears, read: dose: 100.0 mg/kg/injection, schedule: Q04DX002 (ip), vehicle: saline with Tween-80.
Setting [2] is: dose: 200.0 mg/kg/injection, schedule: Q04DX002 (ip), vehicle: saline with Tween-80.
The mark [3] stands for this setting: dose: 400.0 mg/kg/injection, schedule: Q04DX002 (ip), vehicle: saline with Tween-80.
[4] abbreviates: dose: 100.0 mg/kg/injection, schedule: Q01DX001 (ip), vehicle: saline.
[5] abbreviates: dose: 400.0 mg/kg/injection, schedule: Q01DX001 (ip), vehicle: saline.
The mark [6] stands for this setting: dose: 200.0 mg/kg/injection, schedule: Q01DX001 (ip), vehicle: saline.

On to `CC(=O)[C@H]1CC[C@H]2[C@@H]3C[C@H](C)C4=CC(=O)CC[C@]4(C)[C@H]3C(=O)C[C@]12C`, for which the T/C reads like this: (dose: 20.0 mg/kg/injection, schedule: Q01DX009 (ip), vehicle: carboxymethylcellulose (CMC)) 93 % of control; (dose: 25.0 mg/kg/injection, schedule: Q01DX015 (sc), vehicle: steriod suspending solution) 104 % of control; (dose: 32.0 mg/kg/injection, schedule: Q03HX008 (ip), vehicle: Klucel (hydroxypropylcellulose) (HPC)) 93 % of control; (dose: 32.0 mg/kg/injection, schedule: Q03HX016 (ip), vehicle: Klucel (hydroxypropylcellulose) (HPC)) 92 % of control; (dose: 32.0 mg/kg/injection, schedule: Q03HX024 (ip), vehicle: Klucel (hydroxypropylcellulose) (HPC)) 97 % of control; (dose: 40.0 mg/kg/injection, schedule: Q01DX009 (ip), vehicle: carboxymethylcellulose (CMC)) 96 % of control. Moreover, the T/C was 96 % of control (dose: 50.0 mg/kg/injection, schedule: Q01DX015 (sc), vehicle: steriod suspending solution); 92 % of control (dose: 64.0 mg/kg/injection, schedule: Q03HX008 (ip), vehicle: Klucel (hydroxypropylcellulose) (HPC)); 94 % of control (dose: 64.0 mg/kg/injection, schedule: Q03HX016 (ip), vehicle: Klucel (hydroxypropylcellulose) (HPC)); 93 % of control (dose: 64.0 mg/kg/injection, schedule: Q03HX024 (ip), vehicle: Klucel (hydroxypropylcellulose) (HPC)); 103 % of control (dose: 67.0 mg/kg/injection, schedule: Q01DX Z (sc), vehicle: steriod suspending solution); 106 % of control (dose: 80.0 mg/kg/injection, schedule: Q01DX Z (sc), vehicle: steriod suspending solution). Also, the T/C runs as follows: (dose: 100.0 mg/kg/injection, schedule: Q01DX015 (sc), vehicle: steriod suspending solution) 98 % of control; (dose: 100.0 mg/kg/injection, schedule: Q01DX Z (sc), vehicle: steriod suspending solution) 109 % of control; (dose: 120.0 mg/kg/injection, schedule: Q01DX Z (sc), vehicle: steriod suspending solution) 101 % of control; (dose: 123.0 mg/kg/injection, schedule: Q01DX009 (ip), vehicle: Klucel (hydroxypropylcellulose) (HPC)) 100 % of control; (dose: 123.0 mg/kg/injection, schedule: Q03HX008 (ip), vehicle: Klucel (hydroxypropylcellulose) (HPC)) 95 % of control; (dose: 123.0 mg/kg/injection, schedule: Q03HX016 (ip), vehicle: Klucel (hydroxypropylcellulose) (HPC)) 93 % of control. Moreover, the T/C reads like this: (dose: 123.0 mg/kg/injection, schedule: Q03HX024 (ip), vehicle: Klucel (hydroxypropylcellulose) (HPC)) 98 % of control; (dose: 150.0 mg/kg/injection, schedule: Q01DX Z (sc), vehicle: steriod suspending solution) 106 % of control; (dose: 160.0 mg/kg/injection, schedule: Q01DX009 (ip), vehicle: carboxymethylcellulose (CMC)) 93 % of control; (dose: 180.0 mg/kg/injection, schedule: Q01DX Z (sc), vehicle: steriod suspending solution) 97 % of control; (dose: 200.0 mg/kg/injection, schedule: Q01DX015 (sc), vehicle: steriod suspending solution) 102 % of control and 104 % of control; (dose: 220.0 mg/kg/injection, schedule: Q01DX Z (sc), vehicle: steriod suspending solution) 97 % of control. The T/C (dose: 255.0 mg/kg/injection, schedule: Q01DX001 (ip), vehicle: Klucel (hydroxypropylcellulose) (HPC)) was 96 % of control; the T/C (dose: 255.0 mg/kg/injection, schedule: Q01DX009 (ip), vehicle: Klucel (hydroxypropylcellulose) (HPC)) is 103 % of control; the T/C (dose: 255.0 mg/kg/injection, schedule: Q04DX003 (ip), vehicle: Klucel (hydroxypropylcellulose) (HPC)) was 97 % of control; the T/C (dose: 255.0 mg/kg/injection, schedule: Q08DX002 (ip), vehicle: Klucel (hydroxypropylcellulose) (HPC)) was 104 % of control; the T/C (dose: 270.0 mg/kg/injection, schedule: Q01DX Z (sc), vehicle: steriod suspending solution) is 89 % of control; the T/C (dose: 320.0 mg/kg/injection, schedule: Q01DX009 (ip), vehicle: carboxymethylcellulose (CMC)) was 87 % of control. Also, the T/C was 100 % of control (dose: 330.0 mg/kg/injection, schedule: Q01DX Z (sc), vehicle: steriod suspending solution); 102 % of control (dose: 400.0 mg/kg/injection, schedule: Q01DX015 (sc), vehicle: steriod suspending solution); 94 % of control (dose: 495.0 mg/kg/injection, schedule: Q01DX Z (sc), vehicle: steriod suspending solution); 103 % of control (dose: 512.0 mg/kg/injection, schedule: Q08DX002 (ip), vehicle: Klucel (hydroxypropylcellulose) (HPC)); 92 % of control (dose: 640.0 mg/kg/injection, schedule: Q01DX009 (ip), vehicle: carboxymethylcellulose (CMC)).
With `CC1CC(=O)N(Cl)C(=O)N1Cl` (configuration not stated), the T/C reads like this: (dose: 75.0 mg/kg/injection, schedule: Q01DX001 (ip), vehicle: saline) 102 % of control; (dose: 150.0 mg/kg/injection, schedule: Q01DX001 (ip), vehicle: saline) 106 % of control.
Turning to `COc1ccc(-c2c(C)nc(N)nc2OC)cc1`, the T/C is, setting by setting: under setting [1], 96 % of control; under setting [2], 100 % of control; under setting [3], 96 % of control.
For the molecule `CCc1ccc2[nH]c(C(=O)O)cc2c1`, the T/C by setting is: under setting [4], 92 % of control; under setting [5], 90 % of control.
Regarding `O=C(CC(c1ccccc1)(c1ccccc1)c1ccccc1)c1ccccc1`, the T/C was 98 % of control (dose: 50.0 mg/kg/injection, schedule: Q01DX001 (ip), vehicle: carboxymethylcellulose (CMC)); 93 % of control (dose: 100.0 mg/kg/injection, schedule: Q01DX001 (ip), vehicle: carboxymethylcellulose (CMC)); 90 % of control (dose: 200.0 mg/kg/injection, schedule: Q01DX001 (ip), vehicle: carboxymethylcellulose (CMC)); 93 % of control (dose: 400.0 mg/kg/injection, schedule: Q01DX001 (ip), vehicle: carboxymethylcellulose (CMC)).
Take `CCN(CCNc1ccc(C)c2sc3ccccc3c(=O)c12)CC(C)(C)O`: the T/C runs as follows: (dose: 25.0 mg/kg/injection, schedule: Q01DX009 (ip), vehicle: saline sonified) 97 % of control; (dose: 32.0 mg/kg/injection, schedule: Q02DX Z (ip), vehicle: distilled water + alcohol) 119 % of control; (dose: 50.0 mg/kg/injection, schedule: Q01DX001 (ip), vehicle: saline) 106 % of control; (dose: 50.0 mg/kg/injection, schedule: Q01DX009 (ip), vehicle: saline sonified) 95 % of control; (dose: 60.0 mg/kg/injection, schedule: Q01DX009 (ip), vehicle: saline) 120 % of control; under setting [4], 112 % of control. Also, the T/C by setting is: (dose: 100.0 mg/kg/injection, schedule: Q01DX009 (ip), vehicle: saline sonified) 118 % of control; under setting [6], 109 % of control; (dose: 200.0 mg/kg/injection, schedule: Q04DX003 (ip), vehicle: saline) 104 % of control; (dose: 300.0 mg/kg/injection, schedule: Q01DX009 (ip), vehicle: saline) 95 % of control; under setting [5], 124 % of control; (dose: 400.0 mg/kg/injection, schedule: Q04DX003 (ip), vehicle: saline) 108 % of control. For the same molecule, the T/C (dose: 600.0 mg/kg/injection, schedule: Q04DX003 (ip), vehicle: saline) was 189 % of control.
Regarding `CC(=O)c1c(C)cc(=O)[nH]c1O`, the T/C under setting [4] was 107 % of control, the T/C under setting [6] was 97 % of control and the T/C under setting [5] is 110 % of control.
`O=S(=O)(/C(=C\c1ccccc1)c1ccccc1)C(Cl)c1ccccc1` (configuration not stated): the T/C reads like this: under setting [4], 96 % of control; under setting [6], 110 % of control; under setting [5], 95 % of control.
As for `COc1ccc(N=Cc2ccc(OC(=O)c3ccccc3)c(OC)c2)cc1`, the T/C was 100 % of control under setting [1], 100 % of control under setting [2] and 93 % of control under setting [3].
Regarding `CC1([CH2][Hg][I])CS(=O)(=O)CC(C)([CH2][Hg][I])O1` (configuration not stated), the T/C is 104 % of control (dose: 5.0 mg/kg/injection, schedule: Q01DX001 (ip), vehicle: saline); 94 % of control (dose: 5.0 mg/kg/injection, schedule: Q01DX015 (ip), vehicle: saline); 104 % of control (dose: 10.0 mg/kg/injection, schedule: Q01DX001 (ip), vehicle: saline); 97 % of control (dose: 10.0 mg/kg/injection, schedule: Q01DX015 (ip), vehicle: saline); 96 % of control (dose: 20.0 mg/kg/injection, schedule: Q01DX001 (ip), vehicle: saline); 102 % of control (dose: 20.0 mg/kg/injection, schedule: Q01DX015 (ip), vehicle: saline). In addition, the T/C by setting is: (dose: 40.0 mg/kg/injection, schedule: Q01DX001 (ip), vehicle: saline) 98 % of control; (dose: 40.0 mg/kg/injection, schedule: Q01DX015 (ip), vehicle: saline) 108 % of control; (dose: 80.0 mg/kg/injection, schedule: Q01DX001 (ip), vehicle: saline) 104 % of control.
